Laboratory results published in patent US5932742A, “Arylsulfonylimidazolone derivatives as an antitumor agent” (priority 1996, dated 1999).
Values after ≈ are worked out from the molar mass of the structure shown. “Also recorded” adds a separate entry of the source. Structures can show the parent of a compound that is named as a salt. Where two headings read alike, the source gives them in different places. Values belong to the compound of their own block, whether it stands above or below them.

Assays:
[1] = tested on: Colo205 (ATCC CCL 222): human colon adenocarcinoma; assay: In vitro antitumor activity, MTT assay, Colo205; format: cell-based; details: for IC50: Homo sapiens
Method in brief: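 Colo205 cells in RPMI 1640/10% FBS were exposed 48 h at 37 °C to 5-fold serial dilutions, final 20 to 0.00128 µg/ml, DMSO below 0.5%. MTT added for 4 h, formazan dissolved in DMSO, A540 read versus medium control; IC50 by linear regression.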

[2] = tested on: KB (ATCC CCL 17): human epidermoid carcinoma; assay: In vitro antitumor activity, MTT assay, KB; format: cell-based; details: Homo sapiens; Table 1; MTT, 48 hrs; read-out: IC50 (KB)
Experimental: In vitro antitumor activity against human tumor cell lines
In vitro antitumor activity of the compounds according to the present invention was determined by MTT assay method against the following human tumor cell lines:
KB (ATCC CCL 17): human epidermoid carcinoma
In this test, the known antineoplastic compounds, Doxorubicin and Sulofenur, were used as the comparative agents.
Each of the tumor cells was cultured in RPMI 1640 media containing 10% fetal bovine serum, 100 IU/ml penicillin and 100 μg/ml streptomycin, and then periodically subcultured once or twice per week in trypsin-EDTA solution containing 0.05% trypsin and 0.53mM EDTA.4Na. The human tumor cell line thus obtained (10,000cells/100 μl) was plated on 96-well microplate and then cultured for 24 hrs at 37° C. in a 5% CO2 incubator. Test compound was dissolved in DMSO, sterilized with 0.22 μm PVDF filter, and then serially 5-fold diluted from 40 μg/ml to 0.00256μg/ml. 100 μl of the sample solution thus prepared and RPMI 1640 medium only (control group) were added to 96-well microplate containing the human tumor cell, respectively. The final concentration of the test compound was in the range from 20 μg/ml to 0.00128 μg/ml and the concentration of DMSO was below 0.5%. The cells were cultured for 48 hrs at 37° C. in a 5% CO2 incubator. MTT(3-(4,5-Dimethylthiazole-2-yl)-e,5-diphenyltetrazoliumbromide) was dissolved in physiological saline in a concentration of 2 mg/ml and the resulting solution was filtered through 0.22 μm PTFE filter. 25 μl of MTT solution thus prepared was added to each well of 96-well microplate and incubated for additional 4 hrs at 37° C. in a 5% CO2 incubator. Then, the content of microplate was centrifuged at 1000 rpm for 10 min, and supernatant was removed by flicking. The formazan formed from MTT by mitochondrial succinate dehydrogenase was dissolved in 100 μl of DMSO. The absorbance of each well was measured at 540nm by micro ELISA reader and the cytotoxicity was calculated by dividing the absorbance of test group by the absorbance of control group. After the calculated cytotoxicity (%) was plotted, the concentration of 50% tumor growth inhibition concentration (IC50) was estimated by Linear-Regression method.

[3] = tested on: P388 murine leukemia cells; assay: In vivo antitumor activity against P388 murine leukemia cell; set-up: species or system BDF1 mouse; details: once per 2 days for 10 days, median survival time
Experimental: In vivo antitumor activity against P388 murine leukemia cell
P388 murine leukemia cells were injected into BDF1 mouse intraperitoneally and grown in the peritoneal cavity. The P388 cells were periodically exudated and reinjected intraperitoneally into mouse for subculture.
The cells were exudated, washed, resuspended in saline (2×10^7 cells/ml), and then injected intraperitoneally again into BDF1 mouse (2×10^6 cells/0.1 ml).
Test compound dissolved in appropriate vehicle was administered intraperitonealy or orally into the mouse which was implanted with P388 murine leukemia tumor cells in the frequency of once per 2 days for 10 days. The vehicle was administered into the mouse of control group. Then, the number of live animals were daily checked to estimate the median survival time (MST).
T/C ratio(%) of each test compound was calculated according to the following formula, and the test results are shown in Table 6.
T/C(%)=(MST of test group.div.MST of control group)×100

[4] = tested on: A549 (ATCC CCL 185): human lung carcinoma; assay: In vitro antitumor activity, MTT assay, A549; format: cell-based; details: for IC50: Homo sapiens, A549, 48 h
Method in brief: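 A549 cells in RPMI 1640 with 10% FBS, 10,000 cells/well, pre-cultured 24 hrs, then exposed 48 hrs at 37° C to compound at 20 to 0.00128 μg/ml final (5-fold steps, DMSO below 0.5%). MTT added for 4 hrs, formazan dissolved in DMSO and read at 540nm; IC50 by linear regression of % of control.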

[5] = tested on: SK-OV-3 (ATCC HTB 77): human ovarian adenocarcinoma; assay: In vitro antitumor activity, MTT assay, SK-OV-3; format: cell-based; details: for IC50: Homo sapiens
Method in brief: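 Cells seeded at 10,000 per well, grown 24 h, then exposed 48 h at 37 °C to compound at final 20 to 0.00128 μg/ml (5-fold dilutions, DMSO below 0.5%). MTT added for 4 h, formazan dissolved in DMSO, absorbance read at 540 nm; IC50 estimated by linear regression.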

Male Wistar Rat = assay: Acute toxicity test (LD50); format: in vivo; details: gastric lavage
Experimental: (§1) Acute toxicity test (LD50)
(§2) Male Wistar Rat (Charles River Japan, ca, 6 weeks old) was used as test animal and sodium-carboxymethylcellulose (Na-CMC, Sigma Chemical, U.S.A.) was used as a vehicle control. Compounds 57 and 65 were suspended in 0.5% Na-CMC, respectively, before dosing. Test compounds were administered by gastric lavage with the dosage of 400, 550, 700, 850 and ^1000 mg/kg. Control group was treated only with 0.5% Na-CMC. Each group was consisted of 5 rats.

[6] = Acute toxicity test (LD50); format: in vivo; details: in vivo, po; gastric lavage, male Wistar rat; probit method; 95% confidence interval in parenthesis on the next line
Experimental: as §1, §2

[7] = tested on: Colon 26 murine colon cancer cell; assay: In vivo antitumor activity against Colon 26 murine colon cancer cell; set-up: species or system Balb/C mouse; details: 65 mg/kg p.o., once per 2 days for 10 days; tumor weight
Experimental: In vivo antitumor activity against Colon 26 murine colon cancer cell
Colon 26 murine cancer cells were injected into Balb/C mouse intradermally and grown in mouse abdominal skin to a solid tumor. The Colon 26 tumors were periodically excised from the mouse, digested with an enzyme mixture containing collagenase and DNase, and then intradermally reinjected into mouse for subculture.
The cells were washed, resuspended in saline (5×10^6 cells/ml) and inoculated (5×10^5 cells/0.1 ml) intradermally to abdominal part of Balb/C mouse of which hair was removed in advance. Each test compound was dissolved in a solvent mixture of 60% propylene glycol(PG), 40% cremophor RH60(CP), and distilled water(DW) in the volume ratio of 30:20:50. When the size of tumor reached at appropriate level, the test compound was administered orally into the mouse which was implanted with colon 26 tumor cells in the frequency of once per 2 days for 10 days. The vehicle was also administered into the mouse of control group. The major and minor axis of tumor in each group were regularly measured by vernier calipers to estimate the increase of the tumor volume. Tumor volume was calculated on the basis of the following formula
Tumor volume(mm^3)=(1/2)×[length of major axis(mm)]×[length
When the tumor volume of the control group reached at about 1500 mm^3, the test animals were sacrificed by cervical dislocation and tumor was carefully excised and weighed. The inhibition rate of tumor growth (%) of each test compound was calculated as follows: […]
group.div.Tumor weight of control group)]

[8] = tested on: K562 (ATCC CCL 243): human chronic myelogenous leukemia; assay: In vitro antitumor activity, MTT assay, K562; format: cell-based; details: for IC50: Homo sapiens, K562, 48 h
Method in brief: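 K562 cells (10,000/well) pre-cultured 24 hrs, then exposed 48 hrs at 37° C. to serially 5-fold diluted compound, final 20 μg/ml to 0.00128 μg/ml, DMSO below 0.5%. MTT added 4 hrs; formazan dissolved in DMSO, A540 read. Cytotoxicity as test/control absorbance; IC50 by linear regression.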

[9] = tested on: solid tumors and human tumor xenogafts; details: J. Med. Chem., 1990, 33, 2393; cited from earlier work
[10] = literature; cited from earlier work
[11] = COLO 205, Table 5, 48 hrs, read-out: IC50 (Colo205)

IC50 ([1]; COLO 205, Table 1, 48 hrs, read-out: IC50 (Colo205)): 0.861 µg/mL
IC50 [2]: 0.072 µg/mL
IC50 ([4]; Table 1): 0.321 µg/mL
IC50 ([5]; SK-OV-3, Table 1, 48 hrs): 0.509 µg/mL
SMILES: CC1Cc2cc(S(=O)(=O)n3cc(-c4ccccc4)[nH]c3=O)ccc2N1C(=O)c1ccc(N)cc1 (stereo not drawn) [Example 12, 4-phenyl-1-[N-(4-aminobenzoyl)-2-methylindoline-5-sulfonyl]-2-imidazolone.HCl]
T/C rate (%) ([3]; 65 mg/kg p.o.): 115.4%

SMILES: Nc1ccc(C(=O)N2CCc3cc(S(=O)(=O)N4CC(c5ccccc5)NC4=O)ccc32)cc1 (stereo not drawn) [Example 57, 4-phenyl-1-[N-(4-aminobenzoyl)indoline-5-sulfonyl]-4,5-dihydro-2-imidazolone.HCl]
Acute toxicity, animals per group (dead/total) (Male Wistar Rat; 400 mg/kg): 0/5
Acute toxicity, animals per group (dead/total) (Male Wistar Rat; 550 mg/kg): 1/5
Acute toxicity, animals per group (dead/total) (Male Wistar Rat; 700 mg/kg): 3/5
Acute toxicity, animals per group (dead/total) (Male Wistar Rat; 850 mg/kg): 5/5
Acute toxicity, animals per group (dead/total) (Male Wistar Rat; 1000 mg/kg): 5/5
LD50 [6]: 644 mg/kg
Inhibition rate of tumor growth (%) [7]: 67.4%
IC50 ([8]; Table 4, read-out: IC50 (K562)): 0.203 µg/mL
T/C rate (%) ([3]; 50 mg/kg p.o.): 133.3%
T/C rate (%) ([3]; 65 mg/kg p.o.): 146.0%
T/C rate (%) ([3]; 100 mg/kg i.p.): 166.7%
T/C rate (%) ([3]; 100 mg/kg p.o.): 175.0%
IC50 ([4]; Table 4): 0.09 µg/mL
IC50 ([5]; SK-OV-3, Table 4, 48 hrs): 0.572 µg/mL

IC50 [1, 11]: 0.268 µg/mL
IC50 ([8]; Table 5, read-out: IC50 (K562)): 0.829 µg/mL
IC50 ([4]; Table 5): 0.105 µg/mL
IC50 ([5]; SK-OV-3, Table 5, 48 hrs): 0.062 µg/mL
SMILES: Nc1ccc(C(=O)N2CCc3cc(S(=O)(=O)N4C[C@H](c5ccccc5)NC4=O)ccc32)cc1 [Example 65, (S)-(+)-4-phenyl-1-[N-(4-aminobenzoyl)indoline-5-sulfonyl]-4,5-dihydro-2-imidazolone.HCl]
Inhibition rate of tumor growth (%) [7]: 69.2%
T/C rate (%) ([3]; 65 mg/kg p.o.): 138.5%

SMILES: Cl.NC(Cc1ccccc1)C(=O)Nc1ccc(C(=O)N2CCc3cc(S(=O)(=O)N4C[C@H](c5ccccc5)NC4=O)ccc32)cc1 (stereo partly drawn) [Example 68, (S)-(-)-4-phenyl-1-[N-{4-(2-amino-3-phenyl-propanoyl)aminobenzoyl}indoline-5-sulfonyl]-4,5-dihydro-2-imidazolone.HCl]
IC50 (Colo205) ([1]; Table 5, 48 hrs): 0.598 µg/mL
Inhibition rate of tumor growth (%) [7]: 45.3%
IC50 (K562) ([8]; Table 5, 48 hrs): 0.561 µg/mL
IC50 (A549) ([4]; Table 5, 48 hrs): 0.083 µg/mL
IC50 (SK-OV-3) ([5]; Table 5, 48 hrs): 0.137 µg/mL

IC50 ([1]; COLO 205, Table 3, 48 hrs, read-out: IC50 (Col205)): 48.9 µg/mL (≈ 139 µM)
IC50 [1, 11]: 48.9 µg/mL (≈ 139 µM)
IC50 ([8]; Table 3, read-out: IC50 (K562)): 17.6 µg/mL (≈ 50.1 µM)
IC50 ([8]; Table 4, read-out: IC50 (K562)): 17.6 µg/mL (≈ 50.1 µM)
IC50 ([8]; Table 5, read-out: IC50 (K562)): 17.6 µg/mL (≈ 50.1 µM)
IC50 ([4]; Table 1): 12.8 µg/mL (≈ 36.4 µM)
IC50 ([4]; Table 3): 12.8 µg/mL (≈ 36.4 µM)
IC50 ([4]; Table 4): 12.8 µg/mL (≈ 36.4 µM)
IC50 ([4]; Table 5): 12.8 µg/mL (≈ 36.4 µM)
IC50 ([5]; SK-OV-3, Table 5, 48 hrs): 78.2 µg/mL (≈ 223 µM)
SMILES: O=C(Nc1ccc(Cl)cc1)NS(=O)(=O)c1ccc2c(c1)CCC2 [Sulofenur, reference compound]
antitumor activity [9]: exhibits potent antitumor activity upon solid tumors; also recorded: exceptionally broad spectrum of activity upon solid tumors and human tumor xenogafts
side effects [10]: does not produce serious side effects including myelosuppression, nausea, vomiting, alopecia, mucositis, and hepatotoxicity; also recorded: only shows minor side effects such as anemia or methemoglobinemia
